Earlier results, collected in US20150366901A1, “Methods of Treating Heart Failure” (The Trustees of the University of Pennsylvania, priority 2013, published 2015).

Experiments:
[1] = nitrite formed from nitrate by oral cavity commensal bacteria
[2] = system: old mice; conditions: supplementation for 3 weeks, 478 AU before, young counterparts 332 AU
[3] = system: healthy volunteers; conditions: ingestion of 8 mmol, 3 hours post-ingestion

O=[N+]([O-])O [nitrate]
half-life in plasma (circulating nitrate): ~5 h
share of circulating nitrate actively taken up by the salivary glands (concentrated in saliva, rest excreted by the kidneys): Up to 25%

O=NO [nitrite]
oral bioavailability [1]: > 95%

O=NO [sodium nitrite]
aortic pulse wave velocity (PWV) after supplementation [2]: 384 AU

inorganic nitrate
aortic pulse wave velocity [3]: decrease in aortic pulse wave velocity
